Measured values from patent US20160222014A1, “COMPOUNDS FOR REGULATING FAK AND/OR SRC PATHWAYS” (ASANA BIOSCIENCES, LLC, priority 2013, published 2016).

Key:
recombinant human FAK1 = molecular target: T1, recombinant human FAK1 (Homo sapiens, UniProt Q05397); assay: FAK1 HTRF assay; assay type: biochemical
T1 construct: fused on or other part: N-terminal 6xHis tag
Method in brief: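 His-tagged human FAK1 (residues 692–end, Sf9-expressed), 10 nM final, with 0.5 μM biotinylated gastrin-precursor Tyr87 peptide and a 10 μM final reagent in pH 7.4 buffer, 45 min at rt. Detection used Eu anti-pTyr antibody plus SA-APC (665/620 nm). Compounds top concentration 10 μM; IC50 from % inhibition.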

AURKB (Aurora B) enzyme = molecular target: T2, AURKB (Aurora B) enzyme (Homo sapiens, UniProt Q96GD4); assay: Aurora B HTRF assay; assay type: biochemical; settings: read-out: AuroraB IC50
T2 construct: purchased Invitrogen PVR 130
Experimental: AURKB (Aurora B) enzyme was obtained (Invitrogen, Cat No. PVR 130, Lot No. 857013J). A 8.64 μM stock was used at a final concentration 5 nM in the assay.
Lance@Ultera Ulight-PLK (Ser137) peptide substrate
Peptide substrate was obtained from Perkin Elmer (Lot#1629793, TRF0110-M). A 5 μM stock was used at a final concentration of 50 nM in the assay.
10 mM stock prepared freshly as above, used at a final concentration of 30 μM in assay.
The plate was covered with aluminum foil, put on a shaker and incubated 1 h at rt.
Reference: Pfizer aurora inhibitor PF-03814735 was procured from Selleckchem: Cat# S2725
Using stock Lance detection buffer, 1× Lance detection buffer was prepared. • 1. 10× lance detection buffer was diluted to 1×, mixed well and 100 μL was removed, and was used to substitute with antibody and EDTA (for a total of 2200 μL). • 2. 88 μL of […] EDTA was added from 500 mM stock. • 3. 14 μL Europium labeled antibody (LANCE@ Ultra EU-Anti-P-PLK(Ser 137), TRF0203-D, Lot No. 1630351, Perkin Elmer) was added from 625 nM stock; required concentration was 2 nM in the assay. • 4. The buffer well was mixed and 20 μL was transferred to the each well in the assay plate. • 5. The solutions were incubated for 1 h at rt. • 6. The plate was read using MET-HTRF® protocol using Pherastar equipment.

T2 sequence (Q96GD4 whole entry): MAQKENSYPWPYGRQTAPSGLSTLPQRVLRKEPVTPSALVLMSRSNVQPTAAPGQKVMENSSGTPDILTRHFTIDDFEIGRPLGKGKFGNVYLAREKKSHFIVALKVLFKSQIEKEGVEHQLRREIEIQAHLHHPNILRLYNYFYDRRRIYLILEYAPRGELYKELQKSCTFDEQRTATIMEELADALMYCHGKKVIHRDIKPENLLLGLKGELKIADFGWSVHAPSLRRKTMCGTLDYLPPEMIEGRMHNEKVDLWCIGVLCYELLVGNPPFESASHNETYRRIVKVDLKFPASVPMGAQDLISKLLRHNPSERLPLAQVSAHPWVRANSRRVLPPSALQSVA
T1 sequence (Q05397 422-680 limits assumed): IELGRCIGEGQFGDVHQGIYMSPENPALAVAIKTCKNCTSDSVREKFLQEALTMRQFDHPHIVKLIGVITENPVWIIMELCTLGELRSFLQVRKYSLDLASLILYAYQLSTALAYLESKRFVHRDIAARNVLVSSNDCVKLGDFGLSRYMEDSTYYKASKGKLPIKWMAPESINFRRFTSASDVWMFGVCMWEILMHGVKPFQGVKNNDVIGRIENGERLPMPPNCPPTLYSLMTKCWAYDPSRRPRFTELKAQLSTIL

SMILES	IC50 (recombinant human FAK1)	IC50 (AURKB (Aurora B) enzyme)
O=S(=O)(c1cccc2cccnc12)n1ccc2cnc(Nc3ccc(N4CCN(CCO)CC4)cc3)cc21 [Example 340]	< 0.02 µM	< 0.02 µM
CN(C)c1cccc(Nc2ncc3ccn(Cc4cccnc4N(C)S(C)(=O)=O)c3n2)c1 [Example 139]	< 0.02 µM	< 0.02 µM
C[C@H]1CNCCN1c1ccc(Nc2cc3c(ccn3S(=O)(=O)c3cccc4cccnc34)cn2)cc1 [Example 478]	< 0.02 µM	< 0.02 µM
N#Cc1ccccc1S(=O)(=O)n1ccc2cnc(Nc3ccc(N4CCN(CCO)CC4)cc3)cc21 [Example 413]	< 0.02 µM	< 0.02 µM
COc1ccc(N(C)S(C)(=O)=O)c(Cn2ccc3cnc(Nc4ccc(N5CCN[C@@H](C)C5)cc4)nc32)c1 [Example 675]	< 0.02 µM	< 0.02 µM
CC1(C)CN(S(=O)(=O)c2cccc3cccnc23)c2nc(Nc3ccc4c(c3)CCC(=O)N4)ncc21 [Example 545]	< 0.02 µM	< 0.02 µM
CN(c1ccccc1Cn1ccc2cnc(Nc3ccc(N4CCN(CCO)CC4)cc3)nc21)S(C)(=O)=O [Example 423]	< 0.02 µM	< 0.02 µM
O=c1[nH]c2ccc(Nc3ncc4ccn(S(=O)(=O)c5cccc6cccnc56)c4n3)cc2[nH]1 [Example 395]	< 0.02 µM	< 0.02 µM
CN(C)C1CCN(c2ccc(Nc3ncc4ccn(S(=O)(=O)c5cccc6cccnc56)c4n3)cc2)CC1 [Example 462]	< 0.02 µM	< 0.02 µM
COc1cc(Nc2ncc3ccn(S(=O)(=O)c4cccc5cccnc45)c3n2)ccc1N1CCN(C)CC1 [Example 427]	< 0.02 µM	< 0.02 µM
CN(c1ncccc1Cn1ccc2cnc(Nc3ccc4c(c3)OCC(=O)N4)nc21)S(C)(=O)=O [Example 218]	< 0.02 µM	< 0.02 µM

Results, then the molecule that gave them:

IC50 (recombinant human FAK1)	IC50 (AURKB (Aurora B) enzyme)	SMILES
< 0.02 µM	< 0.02 µM	O=S(=O)(c1cccc2cccnc12)n1ncc2cnc(Nc3ccc(N4CCNCC4)cc3)nc21 [Example 231, N-(4-(piperazin-1-yl)phenyl)-1-(quinolin-8-ylsulfonyl)-1H-pyrazolo[3,4-d]pyrimidin-6-amine]
< 0.02 µM	< 0.02 µM	CN(c1ccccc1Cn1ccc2cnc(Nc3ccc(N4CCN(CC(=O)O)CC4)cc3)nc21)S(C)(=O)=O [Example 662]
< 0.02 µM	< 0.02 µM	CN(c1ncccc1Cn1ccc2cnc(Nc3ccc4c(c3)C(C)(C)CC(=O)N4)nc21)S(C)(=O)=O [Example 211]
< 0.02 µM	< 0.02 µM	O=S(=O)(c1cccc2cccnc12)n1ccc2cnc(Nc3ccc4ncsc4c3)nc21 [Example 381]
< 0.02 µM	< 0.02 µM	O=S(=O)(c1cccc2cccnc12)n1ccc2cnc(Nc3ccc(N4CCC(O)CC4)cc3)cc21 [Example 346]
< 0.02 µM	< 0.02 µM	O=S(=O)(c1cccc2cccnc12)n1ccc2cnc(Nc3ccc(N4CCOCC4)cc3)nc21 [Example 389]
< 0.02 µM	< 0.02 µM	Cc1ccc(N(C)S(C)(=O)=O)c(Cn2ccc3cnc(Nc4ccc(N5CCC(N(C)C)CC5)c(C)c4)nc32)c1 [Example 780]
< 0.02 µM	< 0.02 µM	C[C@H]1CN(c2ccc(Nc3cc4c(ccn4S(=O)(=O)c4ccccc4C#N)cn3)cc2)CCN1 [Example 472]
< 0.02 µM	< 0.02 µM	CN1CCN(c2ccc(Nc3cc4c(ccn4S(=O)(=O)c4cccc5cccnc45)cn3)cc2)CC1 [Example 353]
< 0.02 µM	< 0.02 µM	C[C@H]1CN(c2ccc(Nc3ncc4ccn(S(=O)(=O)c5cccc6cccnc56)c4n3)cc2)CCN1 [Example 230]
< 0.02 µM	< 0.02 µM	CN(c1ccccc1Cn1ccc2cnc(Nc3ccc(N4CCNC(C)(C)C4)cc3)nc21)S(C)(=O)=O [Example 606]
< 0.02 µM	< 0.02 µM	C[C@@H](O)CN1CCN(c2ccc(Nc3ncc4ccn(Cc5ccccc5N(C)S(C)(=O)=O)c4n3)cc2)CC1 [Example 665]
< 0.02 µM	< 0.02 µM	O=S(=O)(c1cccc2cccnc12)n1ccc2cnc(Nc3ccc(N4CCNCC4)cc3)cc21 [Example 321]
